According to ChEMBL document CHEMBL2034897, “Discovery and optimization of benzenesulfonanilide derivatives as a novel class of 11β-HSD1 inhibitors” (Bioorg Med Chem Lett, 2012):

Target: 11-beta-hydroxysteroid dehydrogenase 1 (Homo sapiens, UniProt P28845)
Test: Inhibition of human 11beta-HSD1 using [3H]cortisone as substrate assessed as production of [3H]-cortisol by scintillation proximity assay

Chain of 11-beta-hydroxysteroid dehydrogenase 1 (P28845 whole entry): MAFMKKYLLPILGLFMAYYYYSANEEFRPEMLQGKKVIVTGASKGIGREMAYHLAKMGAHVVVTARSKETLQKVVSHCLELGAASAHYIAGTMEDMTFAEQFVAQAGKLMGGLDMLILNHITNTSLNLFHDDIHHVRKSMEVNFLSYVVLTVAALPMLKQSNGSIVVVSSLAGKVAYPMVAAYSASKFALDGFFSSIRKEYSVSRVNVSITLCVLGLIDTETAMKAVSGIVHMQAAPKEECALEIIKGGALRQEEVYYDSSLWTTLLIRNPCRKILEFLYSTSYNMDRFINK

Structure (SMILES) | IC50 [nM]
CN(c1ccc(C(C)(O)C(F)(F)F)cc1)S(=O)(=O)c1ccccc1 (racemic) | > 1000
CC(O)(c1ccc(NS(=O)(=O)c2ccccc2)cc1)C(F)(F)F (racemic) | > 1000
